pKi: −log10 of the molar value.
Each compound was assayed against T1, chimeric human H3 receptor (Homo sapiens, UniProt Q9Y5N1, E19D) (assay: Chimeric human H3 receptor GTP binding assay (agonist-stimulated GTP-gamma35S binding, Example 7)). Settings: "*" in Ki of Table II; assay of Example 7; read-out: Ki.
T1 construct: made in house; host or cells: Sf9 insect cells (baculovirus infection); P2 membrane preparation
Type: biochemical
Method in brief: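 Sf9 membranes co-expressing the chimeric receptor and heterotrimeric G-protein subunits, 35 μg protein per tube, in pH 7.4 Tris buffer with 10 μM GDP. Test compounds at 10^−10 to 10^−6 M with 1 μM histamine, 60 min at room temperature. Filter-bound GTP-gamma^35S read by scintillation; IC50 from non-linear regression of dose-response curves.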

T1 sequence (Q9Y5N1 with tags, fused parts or gaps E19D): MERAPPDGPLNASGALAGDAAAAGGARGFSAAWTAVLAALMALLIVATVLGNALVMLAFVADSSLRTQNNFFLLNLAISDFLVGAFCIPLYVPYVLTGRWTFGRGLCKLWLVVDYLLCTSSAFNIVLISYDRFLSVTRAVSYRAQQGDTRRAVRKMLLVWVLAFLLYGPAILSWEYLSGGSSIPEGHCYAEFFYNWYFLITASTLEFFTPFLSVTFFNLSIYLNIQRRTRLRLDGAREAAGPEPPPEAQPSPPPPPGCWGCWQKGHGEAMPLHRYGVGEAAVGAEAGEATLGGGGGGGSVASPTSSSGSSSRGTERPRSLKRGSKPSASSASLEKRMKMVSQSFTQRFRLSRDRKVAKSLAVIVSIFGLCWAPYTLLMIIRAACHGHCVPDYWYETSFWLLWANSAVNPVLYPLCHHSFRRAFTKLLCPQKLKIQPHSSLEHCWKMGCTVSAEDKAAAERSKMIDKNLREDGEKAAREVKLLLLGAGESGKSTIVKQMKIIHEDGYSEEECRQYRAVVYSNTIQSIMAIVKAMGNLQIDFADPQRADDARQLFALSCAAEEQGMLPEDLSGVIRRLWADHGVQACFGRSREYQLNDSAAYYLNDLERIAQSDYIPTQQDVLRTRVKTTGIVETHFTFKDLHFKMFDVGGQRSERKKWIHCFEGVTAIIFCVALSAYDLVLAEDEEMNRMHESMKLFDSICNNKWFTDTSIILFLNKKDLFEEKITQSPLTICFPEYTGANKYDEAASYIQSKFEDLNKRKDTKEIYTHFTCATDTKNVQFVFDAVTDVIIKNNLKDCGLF

Row | pKi | Structure (SMILES)
1 | > 6.00 | CC(=O)N1CCN(CC(=O)N2CCN(C3CCCCC3)CC2)CC1 [Compound 484, 1-acetyl-4-[2-(4-cyclohexylpiperazin-1-yl)-2-oxoethyl]piperazine]
2 | > 6.00 | CC(=O)c1cccc(-c2cnc(N3CCN(CC(=O)N4CCN(C5CCC5)CC4)CC3)cn2)c1 [Compound 454, 1-[3-(5-{4-[2-(4-cyclobutylpiperazin-1-yl)-2-oxoethyl]piperazin-1-yl}pyrazin-2-yl}phenyl]ethanone]

Same assay, conditions: Table II "Ki", symbol "*": Ki in the assay of Example 7; read-out: Ki

Row | pKi | Structure (SMILES)
3 | > 6.00 | CCCOc1ccc(-c2ccc(N3CCN(CC(=O)N4CCN(C5CCC5)CC4)CC3)cc2)cc1 [Compound 789, 1-cyclobutyl-4-{[4-(4′-propoxybiphenyl-4-yl)piperazin-1-yl]acetyl}piperazine]
4 | > 6.00 | O=C(CN1CCN(c2ncc(F)cn2)CC1)N1CCN(C2CCC2)CC1 [Compound 916, 2-{4-[2-(4-cyclobutylpiperazin-1-yl)-2-oxoethyl]piperazin-1-yl}-5-fluoropyrimidine]
5 | > 6.00 | Cc1ccc(-c2cnc(N3CCN(CC(=O)N4CCN(C5CCC5)CC4)CC3)cn2)cc1F [Compound 922, 2-{4-[2-(4-cyclobutylpiperazin-1-yl)-2-oxoethyl]piperazin-1-yl}-5-(3-fluoro-4-methylphenyl)pyrazine]
6 | > 6.00 | Cc1ccc(N2CCN(CC(=O)N3CCN(C4CCCC4)CC3)CC2)cc1C [Compound 837, 1-cyclopentyl-4-{[4-(3,4-dimethylphenyl)piperazin-1-yl]acetyl}piperazine]

Same assay, conditions: Table II, "*" in Ki; assay of Example 7; read-out: Ki

Row | pKi | Structure (SMILES)
7 | > 6.00 | O=C(CN1CCN(c2ccc(-c3ccccc3C(F)(F)F)cc2)CC1)N1CCN(C2CCC2)CC1 [Compound 580, 1-cyclobutyl-4-({4-[2′-(trifluoromethyl)biphenyl-4-yl]piperazin-1-yl}acetyl)piperazine]
8 | > 6.00 | O=C(CN1CCN(c2ccc(-c3cc(F)cc(F)c3)cc2)CC1)N1CCN(C2CCC2)CC1 [Compound 740, 1-cyclobutyl-4-{[4-(3′,5′-difluorobiphenyl-4-yl)piperazin-1-yl]acetyl}piperazine]
9 | > 6.00 | CC(C)Oc1cccc(-c2ccc(N3CCN(CC(=O)N4CCN(C5CCC5)CC4)CC3)cc2)c1 [Compound 755, 1-cyclobutyl-4-{[4-(3′-isopropoxybiphenyl-4-yl)piperazin-1-yl]acetyl}piperazine]
10 | > 6.00 | COc1ccc(-c2ccc(N3CCN(CC(=O)N4CCN(C5CCC5)CC4)CC3)cc2)cc1OC [Compound 732, 1-cyclobutyl-4-{[4-(3′,4′-dimethoxybiphenyl-4-yl)piperazin-1-yl]acetyl}piperazine]
11 | > 6.00 | O=C(CN1CCN(c2ccc(-c3cc(F)ccc3F)cc2)CC1)N1CCN(C2CCC2)CC1 [Compound 685, 1-cyclobutyl-4-{[4-(2′,5′-difluorobiphenyl-4-yl)piperazin-1-yl]acetyl}piperazine]
12 | > 6.00 | Cc1cc(C)cc(-c2ccc(N3CCN(CC(=O)N4CCN(C5CCC5)CC4)CC3)cc2)c1 [Compound 743, 1-cyclobutyl-4-{[4-(3′,5′-dimethylbiphenyl-4-yl)piperazin-1-yl]acetyl}piperazine]
13 | > 6.00 | O=C(CN1CCN(c2ccc(C(=O)N3CCC(F)(F)CC3)cc2)CC1)N1CCN(C2CCC2)CC1 [Compound 647, 1-cyclobutyl-4-[(4-{4-[(4,4-difluoropiperidin-1-yl)carbonyl]phenyl}piperazin-1-yl)acetyl]piperazine]

Same assay, conditions: Table II; assay of Example 7; "*" in Ki; read-out: Ki

Row | pKi | Structure (SMILES)
14 | > 6.00 | N#Cc1cccc(-c2ccc(N3CCN(CC(=O)N4CCN(C5CCC5)CC4)CC3)nn2)c1 [Compound 997, 3-(6-{4-[2-(4-cyclobutylpiperazin-1-yl)-2-oxoethyl]piperazin-1-yl}pyridazin-3-yl)benzonitrile]
15 | > 6.00 | COc1ccc(-c2ccc(N3CCN(CC(=O)N4CCN(C5CCC5)CC4)CC3)nn2)c(OC)c1 [Compound 1042, 3-{4-[2-(4-cyclobutylpiperazin-1-yl)-2-oxoethyl]piperazin-1-yl}-6-(2,4-dimethoxyphenyl) pyridazine]
16 | > 6.00 | CCCCCNC(=O)c1ccc(N2CCN(CC(=O)N3CCN(C4CCC4)CC3)CC2)cc1 [Compound 1135, 4-{4-[2-(4-cyclobutylpiperazin-1-yl)-2-oxoethyl]piperazin-1-yl}-N-pentylbenzamide]
17 | > 6.00 | CCOc1ccc(-c2cnc(N3CCN(CC(=O)N4CCN(C5CCC5)CC4)CC3)cn2)cc1 [Compound 946, 2-{4-[2-(4-cyclobutylpiperazin-1-yl)-2-oxoethyl]piperazin-1-yl}-5-(4-ethoxyphenyi)pyrazine]
18 | > 6.00 | O=C(CN1CCN(c2ccc(-c3ccc4c(c3)OCCO4)nn2)CC1)N1CCN(C2CCC2)CC1 [Compound 1035, 3-{4-[2-(4-cyclobutylpiperazin-1-yl)-2-oxoethyl]piperazin-1-yl}-6-(2,3-dihydro-1,4-benzodioxin-6-yl)pyridazine]
19 | > 6.00 | CSc1cccc(-c2ccc(N3CCN(CC(=O)N4CCN(C5CCC5)CC4)CC3)nn2)c1 [Compound 1025, 3-{4-[2-(4-cyclobutylpiperazin-1-yl)-2-oxoethyl]piperazin-1-yl}-6-[3-(methylthio)phenyl] pyridazine]
20 | > 6.00 | Cc1cccc(-c2ccc(N3CCN(CC(=O)N4CCN(C5CCC5)CC4)CC3)nn2)c1 [Compound 1011, 3-{4-[2-(4-cyclobutylpiperazin-1-yl)-2-oxoethyl]piperazin-1-yl}-6-(3-methylphenyl)pyridazine]
21 | > 6.00 | COc1ccc(-c2cnc(N3CCN(CC(=O)N4CCN(C5CCC5)CC4)CC3)cn2)c(OC)c1 [Compound 954, 2-{4-[2-(4-cyclobutylpiperazin-1-yl)-2-oxoethyl]piperazin-1-yl}-5-(2,4-dimethoxyphenyl) pyrazine]

Same assay, conditions: assay of Example 7; "*" in Ki of Table II; read-out: Ki

Row | pKi | Structure (SMILES)
22 | > 6.00 | CCCCNC(=O)c1cccc(N2CCN(CC(=O)N3CCN(C4CCC4)CC3)CC2)c1 [Compound 1263, N-butyl-3-{4-[2-(4-cyclobutylpiperazin-1-yl)-2-oxoethyl]piperazin-1-yl}benzamide]
23 | > 6.00 | O=C(NC1CCCC1)c1ccc(N2CCN(CC(=O)N3CCN(C4CCC4)CC3)CC2)nn1 [Compound 1166, 6-{4-[2-(4-cyclobutylpiperazin-1-yl)-2-oxoethyl]piperazin-1-yl}-N-cyclopentylpyridazine-3-carboxamide]
24 | > 6.00 | CCCCCNC(=O)c1ccc(N2CCN(CC(=O)N3CCN(C4CCC4)CC3)CC2)nc1 [Compound 1178, 6-{4-[2-(4-cyclobutylpiperazin-1-yl)-2-oxoethyl]piperazin-1-yl}-N-pentylnicotinamide]
25 | > 6.00 | O=C(c1ccc(N2CCN(CC(=O)N3CCN(C4CCC4)CC3)CC2)cc1)C1CCC1 [Compound 1194, cyclobutyl(4-{4-[2-(4-cyclobutylpiperazin-1-yl)-2-oxoethyl]piperazin-1-yl}phenyl)methanone]
26 | > 6.00 | O=C(NC1CCCCC1)c1ccc(N2CCN(CC(=O)N3CCN(C4CCC4)CC3)CC2)cc1 [Compound 1139, 4-{4-[2-(4-cyclobutylpiperazin-1-yl)-2-oxoethyl]piperazin-1-yl}-N-cyclohexylbenzamide]
27 | > 6.00 | Cc1ccc(C(=O)NC2CCN(CC(=O)N3CCN(C4CCC4)CC3)C2)cc1 (stereo not drawn) [Compound 1231, N-{1-[2-(4-cyclobutylpiperazin-1-yl)-2-oxoethyl]pyrrolidin-3-yl}-4-methylbenzamide]
28 | > 6.00 | CCC(C)CNC(=O)c1ccc(N2CCN(CC(=O)N3CCN(C4CCC4)CC3)CC2)nc1 (stereo not drawn) [Compound 1173, 6-{4-[2-(4-cyclobutylpiperazin-1-yl)-2-oxoethyl]piperazin-1-yl}-N-(2-methylbutyl)nicotinamide]

Same assay, conditions: assay of Example 7; symbol * in column headed Ki of Table II; read-out: Ki

Row | pKi | Structure (SMILES)
29 | > 6.00 | CN(C)C1CCN(CC(=O)N2CCN(C3CCCC3)CC2)C1 (stereo not drawn) [Compound 444, 1-[2-(4-cyclopentylpiperazin-1-yl)-2-oxoethyl]-N,N-dimethylpyrrolidin-3-amine]
30 | > 6.00 | CC1CN(c2ccc(C(F)(F)F)cn2)CCN1CC(=O)N1CCN(C2CCCC2)CC1 (stereo not drawn) [Compound 442, 1-[2-(4-cyclopentylpiperazin-1-yl)-2-oxoethyl]-2-methyl-4-[5-(trifluoromethyl)pyridin-2-yl]piperazine]
31 | > 6.00 | CCCN(CC1CC1)C1CCN(CC(=O)N2CCN(C3CCCCC3)CC2)CC1 [Compound 440, 1-[2-(4-cyclohexylpiperazin-1-yl)-2-oxoethyl]-N-(cyclopropylmethyl)-N-propylpiperidin-4-amine]
32 | > 6.00 | O=C(CN1CCN(c2ccc(N3CCCC3=O)cc2)CC1)N1CCN(C2CCC2)CC1 [Compound 320, 1-(4-{4-[2-(4-cyclobutylpiperazin-1-yl)-2-oxoethyl]piperazin-1-yl}phenyl)pyrrolidin-2-one]
33 | > 6.00 | CC(=O)c1ccc(N2CCN(C(C)C(=O)N3CCN(C4CCCC4)CC3)CC2)cc1 (stereo not drawn) [Compound 323, 1-(4-{4-[2-(4-cyclopentylpiperazin-1-yl)-1-methyl-2-oxoethyl]piperazin-1-yl}phenyl)ethanone]
34 | > 6.00 | CC(C)C(=O)c1ccc(N2CCN(CC(=O)N3CCN(C4CCC4)CC3)CC2)cc1 [Compound 313, 1-(4-{4-[2-(4-cyclobutylpiperazin-1-yl)-2-oxoethyl]piperazin-1-yl}phenyl)-2-methylpropan-1-one]
35 | > 6.00 | CCC(=O)c1ccc(N2CCN(CC(=O)N3CCN(C4CCCC4)CC3)CC2)cc1 [Compound 324, 1-(4-{4-[2-(4-cyclopentylpiperazin-1-yl)-2-oxoethyl]piperazin-1-yl}phenyl)propan-1-one]
36 | > 6.00 | CC(=O)c1ccc(N2CCN(CC(=O)N3CCN(C4CCC4)CC3)CC2)c(Cl)c1 [Compound 295, 1-(3-chloro-4-{4-[2-(4-cyclobutylpiperazin-1-yl)-2-oxoethyl]piperazin-1-yl}phenyl)ethanone]

Reference: US7851474B2, “Dipiperazinyl ketones and related analogues” (Neurogen Corporation, priority 2005, dated 2010)
